Source: US9328099B2, “Cyanomethylpyrazole carboxamides as janus kinase inhibitors” (Merck Sharp & Dohme Corp., priority 2011, dated 2016)
Read-outs that look alike come from different tables or passages of the source.

Experiments:
JAK2 = JAK2 (Homo sapiens (Human), UniProt O60674); test: Jak Biochemical HTRF Assay, JAK2
Excerpt: (§1) Jak Biochemical HTRF Assay Protocol
(§2) Subsequent reagent additions employed an Agilent Bravo.

JAK1 = JAK1 (Homo sapiens (Human), UniProt P23458); test: Jak Biochemical HTRF Assay, JAK1; details: HTRF biochemical assay, GST-tagged catalytic domain; top concentration tested […]; read-out: JAK1 IC50
Excerpt: as §1, §2

[1] = HTRF biochemical assay, GST-tagged catalytic domain, top concentration tested […]

Chain of JAK1 (P23458 875-1153): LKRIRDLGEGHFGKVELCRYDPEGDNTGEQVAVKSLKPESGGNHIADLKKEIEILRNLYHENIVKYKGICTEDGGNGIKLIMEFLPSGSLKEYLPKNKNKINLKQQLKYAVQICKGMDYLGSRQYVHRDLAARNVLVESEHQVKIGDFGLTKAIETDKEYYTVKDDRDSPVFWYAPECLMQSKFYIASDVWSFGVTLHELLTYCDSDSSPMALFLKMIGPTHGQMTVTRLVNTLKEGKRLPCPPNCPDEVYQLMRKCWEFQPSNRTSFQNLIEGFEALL
Chain of JAK2 (O60674 849-1124): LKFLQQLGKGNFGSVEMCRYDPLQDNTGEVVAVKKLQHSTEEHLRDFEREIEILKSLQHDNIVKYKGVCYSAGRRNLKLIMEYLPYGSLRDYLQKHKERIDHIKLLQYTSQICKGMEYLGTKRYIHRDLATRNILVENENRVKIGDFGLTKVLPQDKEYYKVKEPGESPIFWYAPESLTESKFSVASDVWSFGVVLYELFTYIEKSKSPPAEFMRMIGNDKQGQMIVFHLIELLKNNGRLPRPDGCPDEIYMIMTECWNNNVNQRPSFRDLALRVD

| SMILES | IC50 (JAK2; [1]) | IC50 (JAK1) | IC50 (JAK2) |
| --- | --- | --- | --- |
| C[C@H]1CN(C(=O)OC(C)(C)C)CC[C@]1(CC#N)n1cc(C(N)=O)c(Nc2ccccc2)n1 (racemic) [Example 2-9, tert-Butyl (3S,4R and 3R,4S)-4-[4-carbamoyl-3-(phenylamino)-1H-pyrazol-1-yl]-4-(cyanomethyl)-3-methylpiperidine-1-carboxylate] | 21 nM | – | – |
| C[C@H]1C[C@](CC#N)(n2cc(C(N)=O)c(Nc3ccccc3)n2)CCN1C(=O)OC(C)(C)C (racemic) [Example 2-10] | 21 nM | 2 nM | – |
| C[C@@H]1C[C@](CC#N)(n2cc(C(N)=O)c(Nc3ccccc3)n2)CCN1C(=O)OC(C)(C)C (racemic) [Example 2-11, tert-butyl (2R,4R and 2S,4S)-4-[4-carbamoyl-3-(phenylamino)-1H-pyrazol-1-yl]-4-(cyanomethyl)-2-methylpiperidine-1-carboxylate] | 614 nM | 29 nM | – |
| CC(C)(C)OC(=O)N1CC[C@](CC#N)(n2cc(C(N)=O)c(Nc3ccc(F)cc3)n2)[C@@H](F)C1 (racemic) [Example 6-3, tert-butyl (3S,4R and 3R,4S)-4-{4-carbamoyl-3-[(4-fluorophenyl)amino]-1H-pyrazol-1-yl}-4-(cyanomethyl)-3-fluoropiperidine-1-carboxylate] | 25 nM | 1 nM | – |
| CC(C)(C)OC(=O)N1CC[C@](CC#N)(n2cc(C(N)=O)c(Nc3ccc(F)cc3)n2)[C@H](F)C1 (racemic) [Example 6-4, tert-butyl (3S,4S and 3R,4R)-4-{4-carbamoyl-3-[(4-fluorophenyl)amino]-1H-pyrazol-1-yl}-4-(cyanomethyl)-3-fluoropiperidine-1-carboxylate] | 0.2 nM | 0.05 nM | – |
| CC(C)(C)OC(=O)NC1CCC(CC#N)(n2cc(C(N)=O)c(Nc3ccccc3)n2)CC1 (single isomer, unassigned) [Example 2-19, (1s,3s or 1r,3r) tert-butyl {4-[4-carbamoyl-3-(phenylamino)-1H-pyrazol-1-yl]-4-(cyanomethyl)cyclohexyl}carbamate] | 267 nM | 12 nM | – |
| CC(C)(C)OC(=O)N1CC[C@@](CC#N)(n2cc(C(N)=O)c(Nc3ccc(F)cc3)n2)[C@H](F)C1 (single isomer, unassigned) [Example 47-3, tert-butyl (3R,4S or 3S,4R)-4-{4-carbamoyl-3-[(4-fluorophenyl)amino]-1H-pyrazol-1-yl}-4-(cyanomethyl)-3-fluoropiperidine-1-carboxylate] | 32 nM | 2 nM | – |
| CC(C)(C)OC(=O)N1CC[C@](CC#N)(n2cc(C(N)=O)c(Nc3ccc(F)cc3)n2)[C@@H](F)C1 (single isomer, unassigned) [Example 47-4, tert-butyl (3S,4R or 3R,4S)-4-{4-carbamoyl-3-[(4-fluorophenyl)amino]-1H-pyrazol-1-yl}-4-(cyanomethyl)-3-fluoropiperidine-1-carboxylate] | 83 nM | 2 nM | – |
| C[C@H]1CN(C(=O)OC(C)(C)C)CC[C@]1(CC#N)n1cc(C(N)=O)c(Nc2ccccc2)n1 (single isomer, unassigned) [Example 48-1, tert-Butyl (3S,4R or 3R,4S)-4-[4-carbamoyl-3-(phenylamino)-1H-pyrazol-1-yl]-4-(cyanomethyl)-3-methylpiperidine-1-carboxylate] | 24 nM | – | – |
| C[C@H]1CN(C(=O)OC(C)(C)C)CC[C@]1(CC#N)n1cc(C(N)=O)c(Nc2ccccc2)n1 (single isomer, unassigned) [Example 48-2, tert-Butyl (3S,4R or 3R,4S)-4-[4-carbamoyl-3-(phenylamino)-1H-pyrazol-1-yl]-4-(cyanomethyl)-3-methylpiperidine-1-carboxylate] | 487 nM | – | – |
| N#CCC1(n2cc(C(N)=O)c(Nc3ccc(F)cc3)n2)CCN(C(=O)OC2CCOC2)CC1 (single isomer, unassigned) [Example 50-1, (3S or 3R)-tetrahydrofuran-3-yl 4-{4-carbamoyl-3-[(4-fluorophenyl)amino]-1H-pyrazol-1-yl}-4-(cyanomethyl)piperidine-1-carboxylate] | 47 nM | – | – |
| N#CCC1(n2cc(C(N)=O)c(Nc3ccc(F)cc3)n2)CCN(C(=O)OC2CCOC2)CC1 (single isomer, unassigned) [Example 50-2, (3S or 3R)-tetrahydrofuran-3-yl4-{4-carbamoyl-3-[(4-fluorophenyl)amino]-1H-pyrazol-1-yl}-4-(cyanomethyl)piperidine-1-carboxylate] | 62 nM | – | – |
| CNC(=O)c1cn(C2(CC#N)CCN(C(=O)OC(C)(C)C)CC2)nc1Nc1ccccc1 [Example 1, tert-Butyl 4-(cyanomethyl)-4-[4-(methylcarbamoyl)-3-(phenylamino)-1H-pyrazol-1-yl]piperidine-1-carboxylate] | 1480 nM | 67 nM | – |
| CC(C)(C)OC(=O)N1CCC(CC#N)(n2cc(C(N)=O)c(Nc3ccccc3)n2)CC1 [Example 2-1, tert-Butyl 4-[4-carbamoyl-3-(phenylamino)-1H-pyrazol-1-yl]-4-(cyanomethyl)piperidine-1-carboxylate] | 27 nM | 1 nM | – |
| CC(C)(C)OC(=O)N1CCC(CC#N)(n2cc(C(N)=O)c(Nc3ccc(Br)cc3)n2)CC1 [Example 2-2, tert-butyl 4-{3-[(4-bromophenyl)amino]-4-carbamoyl-1H-pyrazol-1-yl}-4-(cyanomethyl)piperidine-1-carboxylate] | 23 nM | 0.5 nM | – |
| N#CCC1(n2cc(C(N)=O)c(Nc3ccccc3)n2)CCOCC1 [Example 6-5, 1-[4-(cyanomethyl)tetrahydro-2H-pyran-4-yl]-3-(phenylamino)-1H-pyrazole-4-carboxamide] | 133 nM | – | – |
| COC(=O)C(C)(C)OC(=O)N1CCC(CC#N)(n2cc(C(N)=O)c(Nc3ccc(F)cc3)n2)CC1 [Example 29-A, 1-Methoxy-2-methyl-1-oxopropan-2-yl4-{4-carbamoyl-3-[(4-fluorophenyl)amino]-1H-pyrazol-1-yl}-4-(cyanomethyl)piperidine-1-carboxylate] | – | – | 40 nM |
| N#CCC1(n2cc(C(N)=O)c(Nc3ccc(F)cc3)n2)CCN(C(=O)OC2CCOC2)CC1 (stereo not drawn) [Example 30-46, tetrahydrofuran-3-yl 4-{4-carbamoyl-3-[(4-fluorophenyl)amino]-1H-pyrazol-1-yl}-4-(cyanomethyl)piperidine-1-carboxylate] | 37 nM | – | – |
| N#CCC1(n2cc(C(N)=O)c(Nc3ccc(F)cc3)n2)CCC(=O)CC1 [Example 40-1A, 1-(1-(Cyanomethyl)-4-oxocyclohexyl)-3-((4-fluorophenyl)amino)-1H-pyrazole-4-carboxamide] | 39 nM | – | – |
| N#CCC1(n2cc(C(N)=O)c(Nc3ccc(S(=O)(=O)C(F)F)cc3)n2)CCC(Nc2ccc(O)cc2)CC1 (stereo not drawn) [Example 40-7, Cis or trans 1-{1-(cyanomethyl)-4-[(4-hydroxyphenyl)amino]cyclohexyl}-3-({4-[(difluoromethyl)sulfonyl]phenyl}amino)-1H-pyrazole-4-carboxamide] | – | – | 36 nM |
| N#CCC1(n2cc(C(N)=O)c(Nc3ccc(S(=O)(=O)C(F)F)cc3)n2)CCC(Nc2cccnc2)CC1 (stereo not drawn) [Example 40-9, Cis or trans 1-[1-(cyanomethyl)-4-(pyridin-3-ylamino)cyclohexyl]-3-({4-[(difluoromethyl)sulfonyl]phenyl}amino)-1H-pyrazole-4-carboxamide] | – | – | 352 nM |
| N#CCC1(n2cc(C(N)=O)c(Nc3ccc(S(=O)(=O)C(F)F)cc3)n2)CCC(Nc2cccc(O)c2)CC1 (stereo not drawn) [Example 40-14, Cis or trans 1-{1-(cyanomethyl)-4-[(3-hydroxyphenyl)amino]cyclohexyl}-3-({4-[(difluoromethyl)sulfonyl]phenyl}amino)-1H-pyrazole-4-carboxamide] | – | – | 65 nM |
| N#CCC1(n2cc(C(N)=O)c(Nc3ccc(S(=O)(=O)C(F)F)cc3)n2)CCC(Nc2ccccc2O)CC1 (stereo not drawn) [Example 40-32, Cis or trans 1-{1-(cyanomethyl)-4-[(2-hydroxyphenyl)amino]cyclohexyl}-3-({4-[(difluoromethyl)sulfonyl]phenyl}amino)-1H-pyrazole-4-carboxamide] | – | – | 177 nM |
| N#CCC1(n2cc(C(N)=O)c(Nc3ccnc(F)c3)n2)CCC(NC2CCOCC2)CC1 (stereo not drawn) [Example 40-38, Cis or trans 1-[1-(cyanomethyl)-4-(tetrahydro-2H-pyran-4-ylamino)cyclohexyl]-3-[(2-fluoropyridin-4-yl)amino]-1H-pyrazole-4-carboxamide] | – | – | 103 nM |
| N#CCC1(n2cc(C(N)=O)c(Nc3ccc(F)cc3)n2)CCC(NC2CCOCC2)CC1 (stereo not drawn) [Example 40-65, Cis or trans 1-[1-(cyanomethyl)-4-(tetrahydro-2H-pyran-4-ylamino)cyclohexyl]-3-[(4-fluorophenyl)amino]-1H-pyrazole-4-carboxamide] | – | – | 129 nM |
| N#CCC1(n2cc(C(N)=O)c(Nc3ccc(S(=O)(=O)C(F)F)cc3)n2)CCC(N2CC(F)C2)CC1 (stereo not drawn) [Example 40-105, Cis or trans 1-[1-(cyanomethyl)-4-(3-fluoroazetidin-1-yl)cyclohexyl]-3-({4-[(difluoromethyl)sulfonyl]phenyl}amino)-1H-pyrazole-4-carboxamide] | – | 0.08 nM | – |
| N#CCC1(n2cc(C(N)=O)c(Nc3ccnc(F)c3)n2)CCC(NCc2cccc(O)c2)CC1 (stereo not drawn) [Example 41-5, Cis or trans 1-{1-(cyanomethyl)-4-[(3-hydroxybenzyl)amino]cyclohexyl}-3-[(2-fluoropyridin-4-yl)amino]-1H-pyrazole-4-carboxamide] | – | 10 nM | – |
| N#CC[C@]1(n2cc(C(N)=O)c(Nc3ccnc(F)c3)n2)CC[C@@H](NS(=O)(=O)c2cccc(F)c2)CC1 [Example 42, cis-1-(1-(Cyanomethyl)-4-(3-fluorophenylsulfonamido)cyclohexyl)-3-((2-fluoropyridin-4-yl)amino)-1H-pyrazole-4-carboxamide] | – | 8 nM | – |
| N#CC[C@]1(n2cc(C(N)=O)c(Nc3ccccc3)n2)CC[C@@H](C(=O)NCC(F)(F)F)CC1 [Example 45-1, cis or trans 1-{1-(cyanomethyl)-4-[(2,2,2-trifluoroethyl)carbamoyl]cyclohexyl}-3-(phenylamino)-1H-pyrazole-4-carboxamide] | – | – | 301 nM |
